Consider 2 compounds from patent US8357832B2, “F1B-TMIR plasmid vector and transgenic mouse” (National Health Research Institutes, priority 2009, dated 2013).

Structures are written as SMILES.

The test system of series [1] is TMIR expressing tissues (HSV1Δtk) of F1B-TMIR mice. Kind of series: [131I]FIAU γ-camera imaging of F1B-TMIR transgenic mice. The format is in vivo, mouse. The source says: FIG. 4. […] Image of young female mice #7, #29 (Right) was shown for comparison.
Carrier-free [^131I] (2′-fluoro-2′-deoxy-1-β-D-arabinofuranosyl-5-iodouracil) ([^131I]FIAU) was synthesized from 5-trimethylstannyl-1-(2′-deoxy-2′-fluoro-1-β-D-arabinofuranosyl)-uracil (FTAU) by an oxidative iododestannylation method as previously described (Deng W P, Yang W K, Lai W F, et al. Non-invasive in vivo imaging with radiolabelled FIAU for monitoring cancer gene therapy using herpes simplex virus type 1 thymidine kinase and ganciclovir. Eur J Nucl Med Mol Imaging. January 2004; 31 (1):99-109). The radiochemical purity of [^131I]FIAU was >95%, as determined by thin layer chromatograph (TLC) method on a silica gel coated aluminum sheet using ethyl acetate-ethanol mixture (90:10, v/v) as the mobile phase. A Siemens E.CAM dual-head γ-camera, equipped with custom-made 1 mm pinhole collimator, was used for the animal γ-imaging. To block the thyroid uptake of radioiodine, mice were injected with sodium iodine saline (0.9% sodium iodine in normal saline, 1 ml/animal) 15 min prior to the intraperitoneal injection of 11.1 MBq [^131I] FIAU. The animal was laid in the prone position and 4 cm distant from the pinhole center to provide a full coverage of the body. […] The image was scanned one week after injection of probe to ensure adequate clearance of unwanted background radioactivity. […]

Series [2] concerns ZR75-1 cells that constitutively express low amount of eGFP-tk. The settings on record: cited from earlier work.
Series [3] relates to CMV-TMIR transfected CHO cells. Kind of series: Luciferase activity assay after GCV treatment (sensitivity to GCV, functioning HSV1Δtk). The format is cell-based, Chinese hamster. The settings on record: low or high concentration of GCV (0.005 or 0.1 μg/ml), 72 h, normalized to β-gal.
Series [4] concerns F1B-TMIR transfected CHO cells. The description is as above. The settings on record: low or high concentration of GCV (0.005 or 0.1 μg/ml), 72 h, normalized to β-gal. The format is cell-based, Chinese hamster. The procedure:
FIG. 1. (A) Structure of the F1B-TMIR transgenic vector. The restriction sites mentioned in the construction method are shown. (B) Fluorescent pictures of CHO cells transiently transfected by F1B-TMIR vector. Scale bar=100 μm. (C) The luciferase activity in F1B-TMIR transfected CHO cells following the incubation with GCV. The data shown were the luciferase activity normalized to the β-gal activity from a co-transfected RSV-β-gal vector. Error bars represent mean+SEM, n=3, *P<0.05, compared to the untreated group.
Chinese hamster ovary […] (CHO-K1) were maintained in F-12 medium supplemented with 10% fetal bovine serum (FBS) and the antibiotics penicillin, streptomycin, and amophotericin B (PSA) in a 95% air and 5% CO2 humidified incubator. DNA vectors including a RSV β-galactosidase control vector for normalization of transfection efficiency were transfected into the cells using PolyFect (Qiagen) reagent by following manufacturer's protocol. […]
The TMIR vectors driven by CMV or F1B promoter were constructed as foregoing description. […] There was a decrease in the number of cells expressing GFP and in the intensity of fluorescence in F1B-TMIR transfected cells than cells transfected by CMV-TMIR (FIG. 1B) as a result of weaker transactivity by FIB promoter. […]

Series [5] has as its system MDA-MB231 cells that constitutively express large amount of eGFP-tk. The settings on record: cited from earlier work.

As to `O=c1[nH]c(=O)n([C@@H]2O[C@H](CO)[C@@H](O)[C@@H]2F)cc1[131I]` [[^131I]FIAU, [^131I] (2′-fluoro-2′-deoxy-1-β-D-arabinofuranosyl-5-iodouracil)], the “uptake at head (γ imaging)” value in series [1] (F1B-TMIR mice #2, #7, #29, one week after probe injection) is “low uptake”. Moreover, the “uptake in testis (γ imaging)” value in series [1] (male F1B-TMIR mice, one week after intraperitoneal injection of 11.1 MBq probe, absent in female mice) was “strong uptake”.

In the case of `Nc1nc(O)c2ncn(COC(CO)CO)c2n1` [GCV, Ganciclovir], the “ED50 (the dose resulted in 50% of cell death after 7 days)” value was “around 0.1 μg/ml” in series [2] and 5 ng/mL in series [5]. In addition, the “loss of luciferase activity” value in series [3] is 45%; in series [4], 35%.
